Structures are written as SMILES.

What is called ED50 is the dose at which the effect has come halfway, by size or by number of responders. The LD50 is the dose at which mortality reaches 50%.

In series [1] the test system is Entamoeba histolytica Meah. As to the kind of experiment: In vitro antiamebic activity by serial dilutions in monophasic Pavlova medium. The series is classed as cell-based. To be noted: 48 hours, 37° C.; for minimal amoebicidal concentration, mean: mean of Dosage I-X. How it is done: The in vitro activity on Entamoeba histolytica Meah was determined on the products under test and on reference compounds, by the method of serial dilutions (ratio 1:1.5) in monophasic Pavlova medium with inoculation of 30,000 protozoa/ml and with incubation at 37° C. for 48 hours.
The level of activity of the compounds was determined by means of direct microscopical examination at 125 and 500 magnifications of the entire sediment of each culture. The results were expressed as minimal amoebicidal concentration in μg/ml.

Series [2] has as its system Entamoeba histolytica Meah. In words: In vivo antiamebic activity in intestinal infection in the rat. The arrangement: species or system albino rats (strain:Wistar CFHB); key to Mean Score: mean score, 0 = no amoebae/ulceration to 5 = >half cecum ulcerated. The settings on record: for Mean Score: by gavage, 20 animals, score 0 (no amoebae, no ulceration) to 5, vehicle control 3.5; for ED50: Entamoeba histolytica, po, calculated on the number of animals with score = 0, rat, by gavage twice a day for 21/2 days. As for the experimental part: The in vivo antiamebic activity in the intestinal infection was determined with a method similar to the method described by Jones (Ann.trop.Med.Paras., 40, 130-140, 1946), as reported hereunder. Young, specific pathogen free albino rats (strain:Wistar CFHB) weighing 30-35 g and fed on a low-protein diet, were infected by intracecal injection with a suspension of trophozoites of Entamoaba histolytica Meah (250,000/rat) containing 3% of Wilson […] mucin. The substances under test and the reference products were administered in serial doses, by gavage twice a day for 21/2 days. The therapeutic effect was determined on the fifth day after infection on the basis of the presence or absence of amebic ulcers in the cecal mucosa and of viable amoebae in the cecal mucosa and in the fecal content of the cecum.
Each animal was assigned a score, according to the following scale:
score 0=no amoebae, no ulceration;
score 1=from 1 to 20 amoebae per faecal smear; no amoeba in the scrape of caecal mucosa; no ulceration;
score 2=from 20 to a very large number of amoebae per smear of feces; no ameoba in the mucosal scrape; no ulceration;
score 3=amoebae originating from microscopic lesions of the cecal mucosa;
score 4=microscopic lesions of the cecal mucosa;
score 5=more than half the cecum ulcerated by amoebic lesions.
The antiamebic activity was expressed both as ED50 calculated according to the number of animals totally free of amoebae (score=0) and as mean score for each dose level.

The nature of series [3]: Approximate acute toxicity (LD50) in the mouse, single administration per os. To be noted: in vivo, po, measured on the seventh day. How it is done:
The toxicity of the compounds of the invention is quite negligible. For example, for the compounds A and B mentioned in the foregoing Tables the approximate acute toxicity (LD50) in the mouse, determined with single administration of increasing doses and measured on the seventh day of treatment, was, per os, much higher than 800 mg/kg. Similar LD50 are found also for the other compounds of the invention, in particular for the compounds: […]

Series [4] has as its system amoebae within the intestinal wall. As to the kind of experiment: Activity on amoebae within the intestinal wall. To be noted: in vivo.
Another series in a line: Absorption. The settings on record: in vivo.

For the compound `CCOCCN(Cc1ccc(CN(CCOCC)C(=O)C(Cl)Cl)cc1)C(=O)C(Cl)Cl` [Teclozan], the minimal amoebicidal concentration was 0.058 µg/mL in series [1] (Dosage I); 0.058 µg/mL in series [1] (Dosage II); 0.087 µg/mL in series [1] (Dosage III); 0.058 µg/mL in series [1] (Dosage IV); 0.087 µg/mL in series [1] (Dosage IX); 0.087 µg/mL in series [1] (Dosage V). Moreover, the minimal amoebicidal concentration in series [1] (Dosage VI) is 0.058 µg/mL; in series [1] (Dosage VII), 0.087 µg/mL; in series [1] (Dosage VIII) it was 0.087 µg/mL; in series [1] (Dosage X), 0.058 µg/mL. Moreover, the “minimal amoebicidal concentration, mean” value in series [1] was determined as 0.072 µg/mL.
With `CN(C(=O)C(Cl)Cl)c1ccc(OC(=O)c2ccco2)cc1` [Diloxanide furoate], the minimal amoebicidal concentration in series [1] (Dosage I) was determined as 0.44 µg/mL; in series [1] (Dosage II), 0.44 µg/mL; in series [1] (Dosage III) it was 0.44 µg/mL; in series [1] (Dosage IV), 0.29 µg/mL; in series [1] (Dosage IX), 0.19 µg/mL; in series [1] (Dosage V), 0.29 µg/mL. Besides, the minimal amoebicidal concentration in series [1] (Dosage VI) came out at 0.19 µg/mL; in series [1] (Dosage VII), 0.29 µg/mL; in series [1] (Dosage VIII), 0.19 µg/mL; in series [1] (Dosage X), 0.19 µg/mL. Besides, in series [1], the “minimal amoebicidal concentration, mean” value came out at 0.30 µg/mL.
Consider `CCOCCN(Cc1ccc(Oc2ccc(N)cc2)cc1)C(=O)C(Cl)Cl` [Compound A, N-(β-ethoxy-ethyl)-N-[4-phenoxy-(4'-amino)-benzyl]-dichloroacetamide], for which the “Mean Score” value in series [2] (6.2 mg/kg × 5 times) is listed as 1.6; in series [2] (12.5 mg/kg × 5 times) it was 1.1; in series [2] (25 mg/kg × 5 times), 1.0; in series [2] (50 mg/kg × 5 times), 0.5. For the same compound, in series [2], the median effective dose (ED50) is 19 mg/kg. Besides, the minimal amoebicidal concentration in series [1] (Dosage I) worked out at 0.017 µg/mL; in series [1] (Dosage II), 0.017 µg/mL; in series [1] (Dosage III) it was 0.017 µg/mL; in series [1] (Dosage IV), 0.026 µg/mL; in series [1] (Dosage IX) it was 0.026 µg/mL; in series [1] (Dosage V), 0.011 µg/mL. Also, the minimal amoebicidal concentration in series [1] (Dosage VI) turned out to be 0.011 µg/mL; in series [1] (Dosage VII), 0.026 µg/mL; in series [1] (Dosage VIII), 0.017 µg/mL; in series [1] (Dosage X) it was 0.026 µg/mL. Moreover, the “minimal amoebicidal concentration, mean” value in series [1] is 0.019 µg/mL. Moreover, the LD50 at 168 h in series [3] was more than 800 mg/kg.
As to `CCOCCN(Cc1ccc(Oc2ccc(NC(=O)CN)cc2)cc1)C(=O)C(Cl)Cl` [N-(β-ethoxy-ethyl)-N-[4-phenoxy-(4'-glycinylamino)-benzyl]-dichloroacetamide], the “activity on amoebae within the intestinal wall” value in series [4] is given as “active on amoebae within the intestinal wall itself”. Also, the absorption result in “Absorption” is listed as “absorbed to a greater extent”.
With `CCOCCN(Cc1ccc(Oc2ccc([N+](=O)[O-])cc2)cc1)C(=O)C(Cl)Cl` [Etofamide], the “Mean Score” value is given as 3.3 in series [2] (6.2 mg/kg × 5 times), 1.6 in series [2] (12.5 mg/kg × 5 times), 1.3 in series [2] (25 mg/kg × 5 times) and 1.0 in series [2] (50 mg/kg × 5 times). The ED50 in series [2] was 29 mg/kg. Moreover, the minimal amoebicidal concentration in series [1] (Dosage I) came out at 0.026 µg/mL; in series [1] (Dosage II), 0.026 µg/mL; in series [1] (Dosage III), 0.058 µg/mL; in series [1] (Dosage IV), 0.058 µg/mL; in series [1] (Dosage IX), 0.058 µg/mL; in series [1] (Dosage V), 0.026 µg/mL. Also, the minimal amoebicidal concentration is 0.017 µg/mL in series [1] (Dosage VI), 0.039 µg/mL in series [1] (Dosage VII), 0.017 µg/mL in series [1] (Dosage VIII) and 0.039 µg/mL in series [1] (Dosage X). The “minimal amoebicidal concentration, mean” value in series [1] amounted to 0.036 µg/mL.
As for `CCOCCN(Cc1ccc(Oc2ccc(NC(C)=O)cc2)cc1)C(=O)C(Cl)Cl` [Compound B, N-(β-ethoxy-ethyl)-N-[4-phenoxy-(4'-acetamido)-benzyl]-dichloroacetamide], the minimal amoebicidal concentration in series [1] (Dosage I) amounted to 0.004 µg/mL; in series [1] (Dosage II), 0.005 µg/mL; in series [1] (Dosage III), 0.007 µg/mL; in series [1] (Dosage IV), 0.013 µg/mL; in series [1] (Dosage IX) it was 0.017 µg/mL; in series [1] (Dosage V), 0.017 µg/mL. The minimal amoebicidal concentration in series [1] (Dosage VI) was 0.008 µg/mL; in series [1] (Dosage VII), 0.003 µg/mL; in series [1] (Dosage VIII) it was 0.026 µg/mL; in series [1] (Dosage X), 0.017 µg/mL. The “minimal amoebicidal concentration, mean” value in series [1] was determined as 0.011 µg/mL. This compound had an LD50 at 168 h in series [3] of more than 800 mg/kg.

Source of the values: US4302472A, “Substituted N-(β-alkoxy-ethyl)-N-(4-phenoxy-benzyl)-dichloro-acetamides and process for their preparation” (Farmitalia Carlo Erba S.p.A., priority 1977, dated 1981).
